The subject of data set [1] is INS1. The data set is described as follows: INS-1E survival protection against cytokine death – cell-based, luminescence, retest, dose response (AID 449756).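 Further: cell death triggered by IL-1 beta plus TNF-alpha plus IFN-gamma mixture; protective hits raise ATP signal compared with cytokine alone wells.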 It is filed as functional.
The nature of data set [2]: blockers of HIV-1 ZM109 envelope-driven cell-cell fusion – HeLa effector, CEM target cells, luciferase, cherry-pick, dose response (AID 652058).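 Further: luciferase signal from HIV-1 Env mediated cell-cell fusion of effector and target cells.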 It is filed as functional, cell-based.
A short description of data set [3]: viability of HCT116 lacking mutant beta-catenin – cell-based, human colon tumor, dose response (AID 1045).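 Further: HCT116 colon tumor cells with beta catenin knocked out; cells exposed to compound for 60 hours.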 It is filed as functional.
A short description of data set [4]: HIV-1 AD8 envelope cell-cell fusion blockers – cherry-pick, dose response (AID 652062).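 Further: luciferase signal from cell-cell fusion driven by HIV-1 clade B AD8 Env; potency is for inhibitors of fusion seen as a drop in luminescence.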 It is filed as functional, cell-based.
Data set [5] has as its target T1, Microphthalmia-associated transcription factor (Homo sapiens, UniProt O75030).
T1 sequence (O75030 whole entry): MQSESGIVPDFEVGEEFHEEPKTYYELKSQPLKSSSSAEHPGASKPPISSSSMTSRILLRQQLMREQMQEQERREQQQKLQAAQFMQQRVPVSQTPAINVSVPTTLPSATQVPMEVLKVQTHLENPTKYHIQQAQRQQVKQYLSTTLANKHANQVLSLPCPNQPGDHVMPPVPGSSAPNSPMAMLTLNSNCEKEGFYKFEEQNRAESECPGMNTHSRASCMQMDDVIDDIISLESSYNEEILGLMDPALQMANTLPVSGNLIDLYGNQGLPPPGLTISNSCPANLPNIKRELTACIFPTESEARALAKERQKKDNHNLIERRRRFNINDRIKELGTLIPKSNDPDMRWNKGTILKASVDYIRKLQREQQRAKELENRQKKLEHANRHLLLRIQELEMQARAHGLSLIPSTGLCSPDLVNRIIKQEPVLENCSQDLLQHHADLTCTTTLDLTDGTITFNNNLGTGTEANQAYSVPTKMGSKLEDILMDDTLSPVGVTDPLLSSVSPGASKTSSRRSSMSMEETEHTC
The data set is described as follows: reducers of TRPM1 reporter luminescence, concentration series – cell-based, SK-MEL-5, cherry-picked, set 3, MITF inhibitor project, dose response (AID 493073).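 Further: SK-MEL-5 melanoma cells with luciferase driven by the MITF target TRPM1 promoter.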 It is filed as functional.

Data set [6] deals with A-375. The data set is described as follows: MITF: Counter assay: A375 proliferation Measured in Cell-Based System Using Plate Reader - 2084-03_Inhibitor_Dose_DryPowder_Activity. [Related pubchem assays (depositor defined):AID488944]. It is filed as functional. The note with it: Homo sapiens.
Data set [7] is described as follows: viability of PTEN-deleted HCT116 cells – cell-based, HCT116 PTEN knockout, dose response (AID 1047).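 Further: HCT116 colon tumor cells with PTEN knocked out; cells exposed to compound for 60 hours before readout; potency for loss of cell viability measured by luminescence.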 It is filed as functional.
Data set [8] is described as follows: blockers of HIV-1 envelope-mediated cell-cell fusion – cherry-pick, dose response (AID 652057). It is filed as functional, cell-based.
The nature of data set [9]: viability loss in CEM21 cells – cell-based, CellTiter-Glo luminescence, cherry-picked, cytotoxicity control for viral fusion inhibitor project, dose response (AID 652042).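 Further: potency for signal decrease meaning cytotoxicity.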 It is filed as functional.
In data set [10] the target is Phospholipase D1 (Homo sapiens, UniProt Q13393). The data set is described as follows: cellular phospholipase D1 inhibition IC50 – cell-based, dose response (AID 602151).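 Further: cellular PLD1 assay in Calu-1 cells stimulated with PMA.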 It is filed as functional.
Data set [11] has as its target Phospholipase D2 (Homo sapiens, UniProt O14939). The data set is described as follows: cellular phospholipase D2 inhibition IC50 – cell-based, dose response (AID 602147).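 Further: cellular assay in HEK293 cells overexpressing GFP-tagged PLD2.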 It is filed as functional.
The target of data set [12] is Beta-adrenergic receptor kinase 1 (Homo sapiens, UniProt P25098). Description: blockers of aptamer binding to GRK2 – biochemical, flow cytometry beads, FAM-aptamer, powder set 1, dose response (AID 588720).
Data set [13] has as its target T2, Carboxy-terminal domain RNA polymerase II polypeptide A small phosphatase 1 (Homo sapiens, UniProt Q9GZU7).
T2 sequence (Q9GZU7 whole entry): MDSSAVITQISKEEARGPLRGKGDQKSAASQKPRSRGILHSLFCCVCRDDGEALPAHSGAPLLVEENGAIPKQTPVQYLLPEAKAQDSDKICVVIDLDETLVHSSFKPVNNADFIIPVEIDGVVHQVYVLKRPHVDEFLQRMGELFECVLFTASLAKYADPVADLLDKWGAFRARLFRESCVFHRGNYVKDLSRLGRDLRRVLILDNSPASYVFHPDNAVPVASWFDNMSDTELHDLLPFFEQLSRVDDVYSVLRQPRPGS
Description: CTDSP1 inhibitors, concentration-response, biochemical, absorbance readout, ultra-high-throughput screen actives (AID 540297). It is filed as functional.

For data set [14], the target named is Serine/threonine-protein phosphatase (Candida dubliniensis (strain CD36 / CBS 7987 / NCPF 3949 / NRRLY-17841) (Yeast), UniProt B9W6M3). Description: blockers of CaCl2-induced CDRE-lacZ signaling – S. cerevisiae, luminescence, secondary, dose response (AID 2388).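 Further: yeast reporter cells carrying a calcineurin-responsive lacZ construct stimulated with calcium chloride; luminescent beta-galactosidase reporter signal in whole cells rather than isolated phosphatase activity; potency for inhibition where a drop in reporter signal means calcineurin blockade.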 It is filed as functional, cell-based.
A short description of data set [15]: NIH-3T3 fibroblast cytotoxicity, dose response, cytotoxicity control, cell-based, fluorescence, Alamar Blue, secondary assay (AID 2327).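 Further: NIH-3T3 mouse fibroblasts cultured with fluconazole at 8 µg/mL.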 It is filed as functional.
Data set [16] deals with ATP-dependent molecular chaperone HSP82 (Candida albicans (strain WO-1) (Yeast), UniProt C4YTQ8). The data set is described as follows: steroid-induced GRE reporter decrease in yeast – S. cerevisiae, luminescence, Hsp90 inhibitor project, dose response (AID 2400).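 Further: beta-galactosidase luminescence from glucocorticoid response element reporter as proxy for Hsp90 function; inhibitor potency where signal loss means Hsp90 inhibition.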 It is filed as functional, cell-based.
The nature of data set [17]: fluconazole-exposed Candida albicans growth modulators – fluorescence, retest, confirmation (AID 2467). It is filed as functional, cell-based.
In data set [18] the test system is Escherichia coli. The data set is described as follows: microbe, parasite or virus in culture.
In data set [19] the test system is Escherichia coli. The data set is described as follows: microbe, parasite or virus in culture. This is another data set of the same source.
Data set [20] addresses Type-1 angiotensin II receptor (Homo sapiens, UniProt P30556). The data set is described as follows: antagonism of angiotensin II type 1 receptor – cell-based, uHTS hits, selectivity assay for APJ receptor antagonist project, dose response (AID 463214).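 Further: antagonist potency against angiotensin II stimulated AT1 response.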 It is filed as functional.
For data set [21], the target named is Beta-galactosidase (Escherichia coli, UniProt Q8VNN2). The data set is described as follows: PubChem AID 485352. It is filed as functional.
The test system of data set [22] is Jurkat. The data set is described as follows: SAR Analysis of small molecule inhibitors of […] specific antigen receptor-induced NF-kB activation in a Jurkat cell line using a luminescence assay - Set 3. [Related pubchem assays (depositor defined):AID435022, AID435025, AID465]. It is filed as functional, cell-based. The following applies: Homo sapiens.
Data set [23] has as its system HEK293. Description: SAR Analysis of small molecule inhibitors of B-cell specific antigen receptor-induced NF-kB activation in a HEK-293T cell line using a luminescence assay - Set 2. [Related pubchem assays (depositor defined):AID435022, AID435025, AID489021]. It is filed as functional, cell-based. The following applies: Homo sapiens.
Data set [24] has as its system HEK293. Description: HEK293T cell viability loss, resazurin readout – resazurin fluorescence, cytotoxicity control for NF-kB activator project, SAR follow-up (AID 493251). The following applies: Homo sapiens. It is filed as functional, cell-based.
Data set [25] is described as follows: viability loss of HMLE_sh_eGFP cells – cell-based, luminescence, counter-screen for HMLE_sh_ECad selective toxicity project, dose response (AID 463074).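 Further: HMLE human mammary epithelial cells expressing control shRNA against eGFP.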 It is filed as functional, Homo sapiens.
Data set [26] can be described thus: viability of uninfected HEp-2 cells – cell-based, HTS, cytotoxicity control for RSV inhibitor project, dose response (AID 2410). The note with it: human respiratory syncytial virus. It is filed as functional.
Data set [27] concerns the target Cytochrome P450 2C19 (Homo sapiens, UniProt P33261). Description: Cytochrome panel assay with activity outcomes. Panel member name: p450-cyp2c19 Compounds with AC50 equal or less than 10 uM are considered active. It is filed as functional. The following applies: read-out: AC50.
A short description of data set [28]: Luminescence Cell-Based Dose Retest to Confirm Inhibitors of Cancer Stem Cells. [Related pubchem assays (depositor defined):AID2717, AID2721]. It is filed as functional. The note with it: Homo sapiens.
Data set [29] deals with Cytochrome P450 2D6 (Homo sapiens, UniProt P10635).
Data set [30] concerns the target Cytochrome P450 2C9 (Homo sapiens, UniProt P11712).
Data set [31] can be described thus: luciferase reporter signal suppression in cells – H4 neuroglioma cells, luminescence, dose response (AID 1990). It is filed as functional, cell-based.
Data set [32] in a line: HEK-293T viability loss, compound-treated – cell-based, uHTS hits, cytotoxicity control for B/T-cell NF-kB inhibitor project, dose response (AID 489019).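 Further: IC50 reflects cytotoxicity as loss of cell viability.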 It is filed as functional.
Data set [33] is described as follows: Luminescence Cell-Based Dose Response HTS to Identify Inhibitors of 5'UTR Stem-Loop Driven Prion Protein mRNA Translation in H4 Neuroglioblastoma Cells. [Related pubchem assays: 1827 (Project Summary), 1813 (Primary HTS)]. It is filed as functional.
Data set [34] in a line: alpha-synuclein stem-loop luciferase translation blockers – H4 neuroglioma cells, luminescence, confirmation (AID 1988). It is filed as functional, cell-based.
In data set [35] the test system is Jurkat. Description: blockers of NF-kB activation in T cells – Jurkat, luciferase reporter, luminescence, B- and T-cell, dose response (AID 489004).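 Further: NF-kB luciferase reporter Jurkat cells stimulated with PMA plus ionomycin.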 It is filed as functional, cell-based. The note with it: Homo sapiens.
Data set [36] has as its target Genome polyprotein (dengue virus type 2, UniProt P29990). Description: flavivirus cap methylation enzyme inhibition – biochemical, confirmation dose response, primary screen (AID 588689). It is filed as functional.
The subject of data set [37] is Vero. The data set is described as follows: viability of Vero cells under compound – cytotoxicity control for flavivirus capping enzyme inhibitors (AID 588742). It is filed as functional. The following applies: Chlorocebus sabaeus.
The subject of data set [38] is Candida albicans. The data set is described as follows: Candida growth inhibition combined with fluconazole – CaCi-2 strain, Alamar Blue, dry powder, set 3, dose response (AID 488907). It is filed as functional, organism-based.

Active and inactive are the calls of the source.

Cytochrome P450 2D6, sequence (P10635 whole entry): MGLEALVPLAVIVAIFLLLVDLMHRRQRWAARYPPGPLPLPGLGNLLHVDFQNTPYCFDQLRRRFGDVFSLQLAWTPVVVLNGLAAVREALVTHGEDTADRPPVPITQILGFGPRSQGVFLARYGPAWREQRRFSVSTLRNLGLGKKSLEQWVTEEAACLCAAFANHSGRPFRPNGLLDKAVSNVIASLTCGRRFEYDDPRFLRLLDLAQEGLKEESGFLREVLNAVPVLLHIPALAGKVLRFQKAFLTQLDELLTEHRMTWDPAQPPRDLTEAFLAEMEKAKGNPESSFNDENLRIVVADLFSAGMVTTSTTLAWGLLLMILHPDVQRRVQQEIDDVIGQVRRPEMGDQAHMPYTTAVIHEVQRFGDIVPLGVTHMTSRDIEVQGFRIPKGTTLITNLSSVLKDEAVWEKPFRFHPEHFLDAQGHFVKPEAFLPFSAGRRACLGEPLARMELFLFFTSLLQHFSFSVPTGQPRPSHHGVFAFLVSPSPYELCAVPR
Cytochrome P450 2C19, sequence (P33261 whole entry): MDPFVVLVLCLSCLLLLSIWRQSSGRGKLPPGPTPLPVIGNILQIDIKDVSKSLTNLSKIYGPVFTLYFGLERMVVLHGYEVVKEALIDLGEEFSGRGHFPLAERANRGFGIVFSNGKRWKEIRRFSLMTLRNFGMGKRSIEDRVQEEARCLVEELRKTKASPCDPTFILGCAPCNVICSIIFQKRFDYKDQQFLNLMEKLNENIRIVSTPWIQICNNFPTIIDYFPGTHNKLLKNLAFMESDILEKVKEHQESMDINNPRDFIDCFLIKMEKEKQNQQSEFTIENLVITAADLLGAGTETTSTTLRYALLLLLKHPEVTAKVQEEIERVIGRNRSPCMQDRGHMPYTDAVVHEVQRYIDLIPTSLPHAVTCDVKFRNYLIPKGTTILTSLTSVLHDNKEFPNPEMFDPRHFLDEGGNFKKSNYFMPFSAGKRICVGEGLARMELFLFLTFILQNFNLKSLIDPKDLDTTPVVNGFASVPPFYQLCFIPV
Phospholipase D2, sequence (O14939 whole entry): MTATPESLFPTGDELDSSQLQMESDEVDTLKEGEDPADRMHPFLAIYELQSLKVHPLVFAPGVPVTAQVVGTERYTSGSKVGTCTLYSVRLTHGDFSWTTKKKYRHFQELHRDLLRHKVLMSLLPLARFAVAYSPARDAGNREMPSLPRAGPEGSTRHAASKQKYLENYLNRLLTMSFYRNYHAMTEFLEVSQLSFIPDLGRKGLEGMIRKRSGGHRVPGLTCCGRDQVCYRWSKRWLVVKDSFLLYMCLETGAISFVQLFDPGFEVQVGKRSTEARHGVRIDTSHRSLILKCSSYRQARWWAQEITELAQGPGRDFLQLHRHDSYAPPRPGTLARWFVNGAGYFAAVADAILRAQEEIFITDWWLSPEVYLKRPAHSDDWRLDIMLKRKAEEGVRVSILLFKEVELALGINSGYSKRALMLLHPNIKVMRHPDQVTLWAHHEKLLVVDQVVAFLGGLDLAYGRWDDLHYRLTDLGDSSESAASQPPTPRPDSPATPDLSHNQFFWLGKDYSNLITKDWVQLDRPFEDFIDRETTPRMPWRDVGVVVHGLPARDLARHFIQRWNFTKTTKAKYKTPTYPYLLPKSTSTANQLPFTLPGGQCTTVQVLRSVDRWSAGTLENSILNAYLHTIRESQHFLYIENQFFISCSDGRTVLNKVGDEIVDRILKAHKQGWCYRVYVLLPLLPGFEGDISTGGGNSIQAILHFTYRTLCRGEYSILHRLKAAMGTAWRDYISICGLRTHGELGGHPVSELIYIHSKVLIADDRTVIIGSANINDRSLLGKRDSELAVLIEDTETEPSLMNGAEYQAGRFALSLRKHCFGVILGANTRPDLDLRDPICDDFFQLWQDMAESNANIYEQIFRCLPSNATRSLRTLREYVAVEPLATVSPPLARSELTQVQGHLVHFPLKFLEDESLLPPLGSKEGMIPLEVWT
Type-1 angiotensin II receptor, sequence (P30556 whole entry): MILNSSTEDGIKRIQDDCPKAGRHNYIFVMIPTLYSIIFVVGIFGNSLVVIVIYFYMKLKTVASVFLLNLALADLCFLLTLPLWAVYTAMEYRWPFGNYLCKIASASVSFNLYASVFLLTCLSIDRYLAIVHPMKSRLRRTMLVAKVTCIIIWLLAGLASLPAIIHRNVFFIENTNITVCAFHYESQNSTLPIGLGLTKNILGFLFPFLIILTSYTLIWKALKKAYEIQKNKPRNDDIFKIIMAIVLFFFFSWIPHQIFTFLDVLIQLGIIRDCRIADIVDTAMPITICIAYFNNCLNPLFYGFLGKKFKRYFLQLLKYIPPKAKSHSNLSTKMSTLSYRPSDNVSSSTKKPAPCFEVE
Beta-galactosidase, sequence (Q8VNN2 whole entry): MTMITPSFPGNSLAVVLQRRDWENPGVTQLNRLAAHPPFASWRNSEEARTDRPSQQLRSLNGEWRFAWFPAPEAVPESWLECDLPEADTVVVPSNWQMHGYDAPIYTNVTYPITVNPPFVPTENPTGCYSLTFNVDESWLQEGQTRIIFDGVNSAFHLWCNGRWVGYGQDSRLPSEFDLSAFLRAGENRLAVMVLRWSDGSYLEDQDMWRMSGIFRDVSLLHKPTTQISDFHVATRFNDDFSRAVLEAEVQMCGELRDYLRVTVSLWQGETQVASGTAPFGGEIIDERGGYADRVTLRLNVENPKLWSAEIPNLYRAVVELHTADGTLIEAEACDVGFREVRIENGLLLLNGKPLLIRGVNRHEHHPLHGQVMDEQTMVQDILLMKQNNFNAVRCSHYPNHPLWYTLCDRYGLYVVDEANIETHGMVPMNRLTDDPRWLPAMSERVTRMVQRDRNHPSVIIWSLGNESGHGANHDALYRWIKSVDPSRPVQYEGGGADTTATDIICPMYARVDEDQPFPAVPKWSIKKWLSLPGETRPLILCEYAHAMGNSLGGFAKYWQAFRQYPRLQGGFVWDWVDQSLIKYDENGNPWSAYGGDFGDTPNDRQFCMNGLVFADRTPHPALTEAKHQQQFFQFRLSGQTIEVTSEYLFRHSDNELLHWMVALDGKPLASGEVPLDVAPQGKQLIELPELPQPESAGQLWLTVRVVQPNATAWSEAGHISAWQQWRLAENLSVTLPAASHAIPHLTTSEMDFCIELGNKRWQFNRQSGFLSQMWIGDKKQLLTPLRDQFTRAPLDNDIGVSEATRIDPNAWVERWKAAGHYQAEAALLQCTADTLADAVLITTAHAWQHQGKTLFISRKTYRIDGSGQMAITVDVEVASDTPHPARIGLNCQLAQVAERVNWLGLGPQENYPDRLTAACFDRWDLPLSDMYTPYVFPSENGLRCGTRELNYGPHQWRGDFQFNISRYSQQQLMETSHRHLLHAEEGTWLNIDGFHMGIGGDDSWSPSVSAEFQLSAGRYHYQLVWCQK
Serine/threonine-protein phosphatase, sequence (B9W6M3 whole entry): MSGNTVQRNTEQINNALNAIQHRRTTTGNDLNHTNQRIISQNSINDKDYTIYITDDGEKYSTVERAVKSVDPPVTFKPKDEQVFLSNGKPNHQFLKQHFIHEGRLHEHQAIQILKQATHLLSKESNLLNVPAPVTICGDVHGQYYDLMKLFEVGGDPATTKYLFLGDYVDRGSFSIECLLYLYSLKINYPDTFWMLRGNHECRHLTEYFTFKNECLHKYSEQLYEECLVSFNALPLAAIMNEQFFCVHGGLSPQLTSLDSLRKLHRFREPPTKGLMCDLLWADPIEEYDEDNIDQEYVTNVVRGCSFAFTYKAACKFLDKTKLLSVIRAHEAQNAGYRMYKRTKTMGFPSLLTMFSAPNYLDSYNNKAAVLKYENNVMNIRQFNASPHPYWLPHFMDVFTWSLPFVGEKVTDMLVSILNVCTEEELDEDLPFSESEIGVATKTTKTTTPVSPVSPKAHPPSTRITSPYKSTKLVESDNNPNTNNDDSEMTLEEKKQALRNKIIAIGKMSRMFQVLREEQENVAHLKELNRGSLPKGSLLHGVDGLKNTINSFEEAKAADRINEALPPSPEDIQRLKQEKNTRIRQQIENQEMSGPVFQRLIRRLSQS
ATP-dependent molecular chaperone HSP82, sequence (C4YTQ8 whole entry): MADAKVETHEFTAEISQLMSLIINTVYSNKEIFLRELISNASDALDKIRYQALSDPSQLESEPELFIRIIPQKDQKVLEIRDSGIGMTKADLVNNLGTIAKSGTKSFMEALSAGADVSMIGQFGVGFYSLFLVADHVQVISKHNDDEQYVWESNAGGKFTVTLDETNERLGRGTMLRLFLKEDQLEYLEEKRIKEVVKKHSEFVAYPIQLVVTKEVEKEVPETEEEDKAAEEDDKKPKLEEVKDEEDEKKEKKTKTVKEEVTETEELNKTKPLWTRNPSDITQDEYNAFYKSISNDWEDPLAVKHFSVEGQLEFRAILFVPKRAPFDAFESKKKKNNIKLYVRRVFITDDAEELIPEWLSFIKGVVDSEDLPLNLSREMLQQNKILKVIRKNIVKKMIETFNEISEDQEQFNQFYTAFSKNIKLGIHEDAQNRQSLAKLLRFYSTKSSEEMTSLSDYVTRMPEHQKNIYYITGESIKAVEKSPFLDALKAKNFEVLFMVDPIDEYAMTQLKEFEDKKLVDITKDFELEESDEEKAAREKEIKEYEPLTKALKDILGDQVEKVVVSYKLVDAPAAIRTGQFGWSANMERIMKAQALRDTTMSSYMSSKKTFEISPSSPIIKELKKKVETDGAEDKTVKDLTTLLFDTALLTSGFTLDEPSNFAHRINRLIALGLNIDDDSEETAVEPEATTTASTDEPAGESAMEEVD

On to `CC1CCC(C(C)C)C(OC(=O)Cn2c(-c3ccccc3)[n+](C)c3ccccc32)C1` (configuration not stated), for which the AC50 was 3.2 µM (active) in data set [1] (Rattus norvegicus, INS1); 2.71 µM (active) in data set [1] (ins1); 4.62 µM (active) in [2]; 5.44 µM (active) in [4]; 2.37 µM (active) in data set [5]; 41.3 µM (active) in data set [6]. The AC50 is 6.82 µM (active) in data set [8] and 8.36 µM (active) in [9]. Besides, the results for the EC50 in data set [3] and in data set [7] were 2.97 µM (active) and 3.06 µM (active), respectively.

As to `CC(C)[C@@H](CN1CCC2(CC1)C(=O)NCN2c1ccccc1)NC(=O)c1cnc2ccccc2c1`, the IC50 was 0.09 µM (active) in data set [10] and 0.25 µM (active) in [11].

On to `O=C(CCS(=O)(=O)c1ccc(Br)cc1)Nc1cc(F)ccc1F`, for which the EC50 in [12] is 2.47 µM (active). The IC50 in data set [13] is 7.86 µM (active).

For the molecule `CCOc1ccc(NC(=O)c2cn(-c3ccc(OCC)cc3)c(=O)c3cc(OC)c(OC)cc23)cc1`, the EC50 in data set [14] is > 180 µM (inactive); in [15], > 160 µM (inconclusive); in [16], > 160 µM (inactive); in data set [17], 0.789 µM (active).

For `CCC[C@@H]1C[C@@]1(CCC)[C@@H](NC(=O)c1ccccc1)c1ccc(C(=O)OC)cc1`, the AC50 was 21.2 µM (active) in data set [18] and > 380 µM (inactive) in [19].

Regarding `Cc1ccc(C(=O)CNc2ccccc2)cc1`, the IC50 in data set [20] is 9.14 µM (active). In addition, in data set [21], the EC50 was > 40 µM (inactive).

For `CCOc1ccc(-c2nc(CSCC(=O)NCc3cccnc3)c(C)o2)cc1`, the IC50 in data set [22] is 72.6 µM (inactive); in [23], 24.2 µM (inactive); in data set [24], 65 µM (inactive).

As to `O=C(Nc1cccc2ccccc12)c1nn(C23CC4CC(CC(C4)C2)C3)cc1Br`, the AC50 in [25] was 40.6 µM (active); in data set [27], 2.24 µM (inconclusive); in data set [28] it was 1.83 µM (active); in [29] it was “inconclusive”; in data set [30] it was “inconclusive”. In addition, the CC50 in [26] was 27.8 µM (active).

Take `COc1cc([N+](=O)[O-])cc(/C=N/NC(=O)c2ccc(NC(=O)c3ccc(C)cc3)cc2)c1O`: the EC50 is 2.62 µM (active) in data set [31]; 1.01 µM (inconclusive) in data set [15]; 2.62 µM (active) in data set [33]; 1.88 µM (active) in data set [34]; 1.49 µM (active) in [17]. The IC50 is > 80 µM (inactive) in data set [32] and 6.36 µM (active) in data set [35]. In addition, the AC50 in data set [5] is 1.55 µM (active).

In the case of `CCOC(=O)c1c(NC(=O)/C=C/C(=O)O)sc(C)c1-c1ccc(Cl)cc1`, the IC50 in data set [36] is 43 µM (active). In addition, the CC50 in [37] is > 40 µM (active).

As for `O=C(C1CCCCC1)N1CCN(c2ccccn2)CC1`, the AC50 in [38] was 0.398 µM (active).

The values above are taken from ChEMBL document CHEMBL1201862, “PubChem BioAssay data set” (2004).
